Experimental findings from ChEMBL document CHEMBL5143557, “Synthesis and biological evaluation of 3β-O-neoglycosides of caudatin and its analogues as potential anticancer agents” (Bioorg Med Chem, 2022) are described below.

Common to all, as to type: functional, cell-based
In test [1] the test system is MCF7. Description: Antiproliferative activity against human MCF7 cells after 48 hrs by MTT assay. The note with it: MCF7, 48 h. For orientation: Tetrazolium assays rely on reduction of a dye to a coloured formazan, in cell work by metabolically active cells.
The test system of test [2] is HCT-116. Put plainly: Antiproliferative activity against human HCT-116 cells after 48 hrs by MTT assay. Conditions: HCT-116, 48 h.
Test [3] concerns HepG2. Put plainly: Antiproliferative activity against human HepG2 cells after 48 hrs by MTT assay. Conditions: HepG2, 48 h.
The subject of test [4] is HeLa. Put plainly: Antiproliferative activity against human HeLa cells after 48 hrs by MTT assay.

The structures appear in SMILES notation.

Usually IC50 stands for the concentration that inhibits the measured activity by half. Turning to `COc1cc2c(c(OC)c1OC)-c1ccc(OC)c(=O)cc1[C@@H](NC(C)=O)CC2` [COLCHICINE], the IC50 in test [1] came out at 0.028 µM; in test [2], 0.046 µM; in test [3], 0.064 µM.

Turning to `CC(=O)O[C@@H]1[C@@H](O[C@H]2CC[C@@]3(C)C(=CC[C@]4(O)[C@@H]3C[C@@H](OC(=O)/C=C(\C)C(C)C)[C@@]3(C)[C@]4(O)CC[C@@]3(O)C(C)=O)C2)OC[C@H](OC(C)=O)[C@@H]1OC(C)=O`, the IC50 in test [1] turned out to be 24.5 µM; in test [2], 15.9 µM; in test [4], 18.1 µM; in test [3], 6.85 µM.

For `CC(=O)[C@]1(O)CC[C@@]2(O)[C@]1(C)[C@H](OC(=O)c1ccc(O)cc1)C[C@@H]1[C@@]3(C)CC[C@H](O[C@@H]4O[C@H](CO)[C@H](O)[C@H](O)[C@H]4O)CC3=CC[C@]12O`, the IC50 worked out at 20.9 µM in test [1], 27.3 µM in test [2], 25.1 µM in test [4] and 23.7 µM in test [3].

For `CC(=O)[C@]1(O)CC[C@@]2(O)[C@]1(C)[C@H](OC(=O)/C=C(\C)C(C)C)C[C@@H]1[C@@]3(C)CC[C@H](O)CC3=CC[C@]12O` [CAUDATIN], the half-inhibitory concentration (IC50) in test [1] is greater than 100 µM; in test [2], 64.1 µM; in test [4] it was greater than 100 µM; in test [3], 65.9 µM.

As for `CC(=O)O[C@@H]1[C@@H](O[C@H]2CC[C@@]3(C)C(=CC[C@]4(O)[C@@H]3C[C@@H](OC(=O)/C=C(\C)C(C)C)[C@@]3(C)[C@]4(O)CC[C@@]3(O)C(C)=O)C2)OC[C@@H](OC(C)=O)[C@H]1OC(C)=O`, the IC50 in test [1] was 52.6 µM; in test [2], 29.6 µM; in test [4], 60.5 µM; in test [3], 52.8 µM.

Turning to `CC(=O)O[C@H]1[C@@H](OC(C)=O)[C@@H](C)O[C@@H](O[C@H]2CC[C@@]3(C)C(=CC[C@]4(O)[C@@H]3C[C@@H](OC(=O)/C=C(\C)C(C)C)[C@@]3(C)[C@]4(O)CC[C@@]3(O)C(C)=O)C2)[C@@H]1OC(C)=O`, the IC50 in test [1] came to 38.3 µM; in test [2], 20.3 µM; in test [4] it was 44.3 µM; in test [3] it was 23.8 µM.

Turning to `CC(=O)[C@]1(O)CC[C@@]2(O)[C@]1(C)[C@H](OC(=O)/C=C(\C)C(C)C)C[C@@H]1[C@@]3(C)CC[C@H](O[C@H]4C[C@H](O)[C@H](O)CO4)CC3=CC[C@]12O`, the IC50 in test [1] came to 93 µM; in test [2], 36.8 µM; in test [4], 86.5 µM; in test [3], 39.8 µM.

Regarding `CC(=O)O[C@H]1[C@H](OC(C)=O)[C@@H](O[C@H]2CC[C@@]3(C)C(=CC[C@]4(O)[C@@H]3C[C@@H](OC(=O)/C=C(\C)C(C)C)[C@@]3(C)[C@]4(O)CC[C@@]3(O)C(C)=O)C2)O[C@@H](C)[C@H]1OC(C)=O`, the IC50 was 31.5 µM in test [1], 18.4 µM in test [2], 31.7 µM in test [4] and 18.9 µM in test [3].

Turning to `CC(=O)O[C@@H]1[C@@H](O[C@H]2CC[C@@]3(C)C(=CC[C@]4(O)[C@@H]3C[C@@H](OC(=O)/C=C(\C)C(C)C)[C@@]3(C)[C@]4(O)CC[C@@]3(O)C(C)=O)C2)OC[C@H](OC(C)=O)[C@H]1OC(C)=O`, the IC50 in test [1] stood at 47 µM; in test [2] it was 12 µM; in test [4] it was 28.1 µM; in test [3], 15.8 µM.

For `CC(=O)O[C@@H]1[C@@H](OC(C)=O)[C@H](O[C@H]2CC[C@@]3(C)C(=CC[C@]4(O)[C@@H]3C[C@@H](OC(=O)/C=C(\C)C(C)C)[C@@]3(C)[C@]4(O)CC[C@@]3(O)C(C)=O)C2)OC[C@@H]1OC(C)=O`, the IC50 in test [1] came to 43.1 µM; in test [2], 23.8 µM; in test [4], 33.6 µM; in test [3] it was 23.6 µM.

In the case of `CC(=O)O[C@@H]1[C@@H](OC(C)=O)[C@H](O[C@H]2CC[C@@]3(C)C(=CC[C@]4(O)[C@@H]3C[C@@H](OC(=O)c3ccc(O)cc3)[C@@]3(C)[C@]4(O)CC[C@@]3(O)C(C)=O)C2)OC[C@H]1OC(C)=O`, the IC50 in test [1] was 55.4 µM; in test [2], 35.3 µM; in test [4], 60.8 µM; in test [3], 28.5 µM.

Regarding `CC(=O)OC[C@H]1O[C@@H](O[C@H]2CC[C@@]3(C)C(=CC[C@]4(O)[C@@H]3C[C@@H](OC(=O)/C=C(\C)C(C)C)[C@@]3(C)[C@]4(O)CC[C@@]3(O)C(C)=O)C2)[C@H](OC(C)=O)[C@@H](OC(C)=O)[C@H]1OC(C)=O`, the IC50 in test [1] was 16.9 µM; in test [2], 7.41 µM; in test [4] it was 24.8 µM; in test [3], 9.7 µM.

Turning to `CC(=O)O[C@@H]1[C@@H](OC(C)=O)[C@H](C)O[C@@H](O[C@H]2CC[C@@]3(C)C(=CC[C@]4(O)[C@@H]3C[C@@H](OC(=O)/C=C(\C)C(C)C)[C@@]3(C)[C@]4(O)CC[C@@]3(O)C(C)=O)C2)[C@@H]1OC(C)=O`, the IC50 is 95 µM in test [1], 26.1 µM in test [2], greater than 100 µM in test [4] and 72.8 µM in test [3].

Take `CC(=O)OC[C@H]1O[C@@H](O[C@H]2CC[C@@]3(C)C(=CC[C@]4(O)[C@@H]3C[C@@H](OC(=O)c3ccc(O)cc3)[C@@]3(C)[C@]4(O)CC[C@@]3(O)C(C)=O)C2)[C@H](OC(C)=O)[C@@H](OC(C)=O)[C@@H]1OC(C)=O`: the IC50 in test [1] is 90.9 µM; in test [2], 66.2 µM; in test [4] it was 95.8 µM; in test [3] it was 74.5 µM.

`CC(=O)OC[C@H]1O[C@H](O[C@H]2CC[C@@]3(C)C(=CC[C@]4(O)[C@@H]3C[C@@H](OC(=O)/C=C(\C)C(C)C)[C@@]3(C)[C@]4(O)CC[C@@]3(O)C(C)=O)C2)[C@@H](OC(C)=O)[C@@H](OC(C)=O)[C@@H]1OC(C)=O`: the IC50 in test [1] stood at 42.7 µM; in test [2] it was 15.6 µM; in test [4] it was 70.2 µM; in test [3], 23.7 µM.

In the case of `CC(=O)OC[C@H]1O[C@@H](O[C@H]2CC[C@@]3(C)C(=CC[C@]4(O)[C@@H]3C[C@@H](OC(=O)/C=C(\C)C(C)C)[C@@]3(C)[C@]4(O)CC[C@@]3(O)C(C)=O)C2)[C@H](OC(C)=O)[C@@H](OC(C)=O)[C@@H]1OC(C)=O`, the IC50 was 93.4 µM in test [1], 26.6 µM in test [2], greater than 100 µM in test [4] and 65.8 µM in test [3].

As for `CC(=O)O[C@H]1C[C@H](O[C@H]2CC[C@@]3(C)C(=CC[C@]4(O)[C@@H]3C[C@@H](OC(=O)/C=C(\C)C(C)C)[C@@]3(C)[C@]4(O)CC[C@@]3(O)C(C)=O)C2)OC[C@H]1OC(C)=O`, the IC50 turned out to be 26.2 µM in test [1], 31.6 µM in test [2], 43.8 µM in test [4] and 14.1 µM in test [3].

`CC(=O)O[C@@H]1[C@@H](OC(C)=O)[C@H](O[C@H]2CC[C@@]3(C)C(=CC[C@]4(O)[C@@H]3C[C@@H](OC(=O)/C=C/c3ccccc3)[C@@]3(C)[C@]4(O)CC[C@@]3(O)[C@H](C)OC(=O)c3cccnc3)C2)OC[C@H]1OC(C)=O`: the IC50 was greater than 100 µM in test [1], 63.6 µM in test [2], greater than 100 µM in test [4] and 70.1 µM in test [3].

Take `CC(=O)[C@]1(O)CC[C@@]2(O)[C@]1(C)[C@H](OC(=O)/C=C(\C)C(C)C)C[C@@H]1[C@@]3(C)CC[C@H](O[C@H]4OC[C@H](O)[C@H](O)[C@@H]4O)CC3=CC[C@]12O`: the IC50 is greater than 100 µM in test [1], 72.1 µM in test [2], greater than 100 µM in test [4] and 51.8 µM in test [3].

As to `CC(=O)O[C@@H]1[C@@H](OC(C)=O)[C@H](C)O[C@@H](O[C@H]2CC[C@@]3(C)C(=CC[C@]4(O)[C@@H]3C[C@@H](OC(=O)c3ccc(O)cc3)[C@@]3(C)[C@]4(O)CC[C@@]3(O)C(C)=O)C2)[C@@H]1OC(C)=O`, the IC50 came out at 53.6 µM in test [1], 48.7 µM in test [2], 57.1 µM in test [4] and 41.4 µM in test [3].

For the compound `C[C@H](OC(=O)c1cccnc1)[C@]1(O)CC[C@@]2(O)[C@]1(C)[C@H](OC(=O)/C=C/c1ccccc1)C[C@@H]1[C@@]3(C)CC[C@H](O)CC3=CC[C@]12O` [GAGAMININ], the IC50 in test [1] was greater than 100 µM; in test [2], 69.9 µM; in test [4], 96.4 µM; in test [3] it was 65 µM.

`CC(=O)OC[C@H]1O[C@@H](O[C@H]2CC[C@@]3(C)C(=CC[C@]4(O)[C@@H]3C[C@@H](OC(=O)c3ccc(O)cc3)[C@@]3(C)[C@]4(O)CC[C@@]3(O)C(C)=O)C2)[C@H](OC(C)=O)[C@@H](OC(C)=O)[C@H]1OC(C)=O`: the IC50 in test [1] worked out at 20.8 µM; in test [2], 9.32 µM; in test [4] it was 22.8 µM; in test [3], 9.9 µM.

For `CC(=O)O[C@@H]1[C@@H](OC(C)=O)[C@H](C)O[C@@H](O[C@H]2CC[C@@]3(C)C(=CC[C@]4(O)[C@@H]3C[C@@H](OC(=O)/C=C/c3ccccc3)[C@@]3(C)[C@]4(O)CC[C@@]3(O)[C@H](C)OC(=O)c3cccnc3)C2)[C@@H]1OC(C)=O`, the IC50 was greater than 100 µM in test [1], 71.4 µM in test [2], greater than 100 µM in test [4] and 69.1 µM in test [3].

Regarding `CC(=O)O[C@H]1[C@H](O[C@H]2CC[C@@]3(C)C(=CC[C@]4(O)[C@@H]3C[C@@H](OC(=O)/C=C(\C)C(C)C)[C@@]3(C)[C@]4(O)CC[C@@]3(O)C(C)=O)C2)OC[C@@H](OC(C)=O)[C@H]1OC(C)=O`, the half-inhibitory concentration (IC50) in test [1] came out at 61.1 µM; in test [2], 52.1 µM; in test [4], 58.7 µM; in test [3], 30.8 µM.

In the case of `CC(=O)OC[C@H]1O[C@@H](O[C@H]2CC[C@@]3(C)C(=CC[C@]4(O)[C@@H]3C[C@@H](OC(=O)/C=C/c3ccccc3)[C@@]3(C)[C@]4(O)CC[C@@]3(O)[C@H](C)OC(=O)c3cccnc3)C2)[C@H](OC(C)=O)[C@@H](OC(C)=O)[C@H]1OC(C)=O`, the IC50 in test [1] worked out at 24.5 µM; in test [2], 7.11 µM; in test [4], 20.7 µM; in test [3], 8.49 µM.

On to `CC(=O)[C@]1(O)CC[C@@]2(O)[C@]1(C)[C@H](OC(=O)c1ccc(O)cc1)C[C@@H]1[C@@]3(C)CC[C@H](O[C@@H]4O[C@@H](C)[C@H](O)[C@@H](O)[C@H]4O)CC3=CC[C@]12O`, for which the IC50 in test [1] was determined as 88.5 µM; in test [2], 60.3 µM; in test [4], 91.3 µM; in test [3], 54.6 µM.
